What was measured:
[1] = test system: rats of male sex, of the Sprague-Dawley strain; assay: Anti-inflammatory activity in the kaolin test; format: in vivo; conditions: 10% suspension of kaolin injected, diameter of the tibio-tarsal articulation
Protocol: a) Anti-inflammatory activity in the kaolin test. For each compound 16 rats of male sex, of the Sprague-Dawley strain and of 200-250 g of body weight, were used. The rats were divided into four groups each comprising four rats. All.-the animals were injected with a 10% suspension of kaolin. The first group was used as the control, whereas the other three groups were administered with doses respectively of 50,75 and 100 mg/kg. The measurements of the diamzrers of the articulation were effected one hour after the kaolin injection and then every 24 hours.
The inoculation of kaolin caused an increase of the tibio-tarsal articulation which has been partially limited by the treatment with the test compound.

[2] = test system: male rats, of the Sprague-Dawley strain; assay: Anti-inflammatory activity in the egg white test; format: in vivo; conditions: orally, 0.1 ml of egg white in the rear paw, measured 3 and 4 hours later
Protocol: For each compound 16 male rats, of the Sprague-Dawley strain and weighing 300 g, were used. The animals were divided in four groups each comprising four rats. The first group served as a control, whereas the other three gropus were orally administered, with a 30 minute interval, with two doses of 50,75 and 100 mg/kg of the test compound. The last administration was immediately followed by the inoculation of 0.1 ml of egg white in the rear paw of all the animals, including the controls. The measurements of the diameters of the articulations were effected 3 and 4 hours later.

## p-isobutylphenylpropionoylthio-N-acetylcysteine
[1]; dose 75 mg/kg
  Anti-inflammatory activity %: 12%
[1]; dose 100 mg/kg
  Anti-inflammatory activity %: 26%
[2]; two doses of 75 mg/kg with a 30 minute interval
  Anti-inflammatory activity %: 12%
[2]; two doses of 100 mg/kg with a 30 minute interval
  Anti-inflammatory activity %: 20%

From patent publication EP0052910A1, “Derivative of N-acetilcysteine having therapeutical activity, process for its preparation and related pharmaceutical compositions” (Real S.a.s. di Alberto Reiner & C., priority 1980, dated 1982)
